Results on 15 molecules are retold here after patent publication US20240122179A1, “AUXINIC HERBICIDES AND METHODS OF USE THEREOF” (CORTEVA AGRISCIENCE LLC, priority 2021, published 2024).

The nature of data set [1]: Volatility of compounds measured by thermogravimetric analysis (TGA), rate of weight loss. The class given is physicochemical. The settings on record: estimates of volatility. The source says: Briefly, the rate of weight loss measured in units of […]g/min can be used to determine vapor pressure as shown by the simplified equation: wherein, k is the intrinsic volatility and A is the surface area, Referring now to FIG. 2. A graph of weight loss as function of time for solid samples produces a linear curve; the slope of the curve is the rate of weight loss. When this method is used to measure the volatility of aqueous salt concentrates or liquid concentrates, the water or acetone present in the sample volatilizes before the sample of interest. The first linear loss region of the curve is the loss of water or acetone and the second linear region is characteristic of the sample of interest. In order to illustrate the difference in volatility between some of the compounds disclosed herein and the widely used herbicide dicamba, data from both the compounds and dicamba are presented Table 3 and in FIG. 1.

The test system of data set [2] is Conyza canadensis (L.) (ERICA). The experiment in a line: Postemergence herbicide evaluation, percent reduction in plant size vs untreated control, 21 days after treatment. The format is in vivo, Conyza canadensis (L.) (Horseweed). The settings on record: Erigeron canadensis, post-emergence, 504 h, ERICA, postemergence, read-out: Control/Injury; for pest or weed control at 140 g/ha: rate 140 g ae/ha; for pest or weed control at 280 g/ha: rate 280 g ae/ha. Summed up:
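Horseshoe-weed (horseweed) seedlings at 2 to 8 leaf stage in greenhouse (25-28° C, 16 h light), sprayed postemergence at 140 or 280 g ae/ha in acetone/DMSO-based spray solution, 187 L/ha track-sprayer. Randomized complete block, 3-4 replicates; plant size measured 21 days after treatment as percent reduction vs untreated controls.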

The subject of data set [3] is Ambrosia artemisiifolia (AMBEL). The description is as above. The settings on record: post-emergence, 504 h, AMBEL, postemergence, read-out: Control/Injury; for pest or weed control at 140 g/ha: rate 140 g ae/ha; for pest or weed control at 280 g/ha: rate 280 g ae/ha. The class given is in vivo, Ambrosia artemisiifolia (common ragweed). A digest of the protocol:
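Greenhouse-grown plants (25–28 °C, 16 h light) were sprayed postemergence at the 2–8 leaf stage with 140 or 280 g ae/ha in acetone/DMSO-based spray solution with crop oil and surfactant, at 187 L/ha by track sprayer. There were 3–4 replicates. Plant size was measured 21 days after treatment versus untreated plants.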

The next data set concerns Kochia scoparia (KCHSC). Described as above. The class given is in vivo. The settings on record: KCHSC, postemergence; for pest or weed control at 140 g/ha / pest or weed control at 280 g/ha: Bassia scoparia, post-emergence, 504 h, read-out: Control/Injury; for pest or weed control at 280 g/ha: rate 280 g ae/ha. A digest of the protocol:
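Greenhouse-grown plants (25-28 °C, 16 h light) at the 2 to 8 leaf stage were track-sprayed postemergence at 140 or 280 g ae/ha in acetone/DMSO-based spray solution with crop oil and surfactant, at 187 L/ha, in 3-4 randomized replicates.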

The subject of data set [4] is Amaranthus palmeri (AMAPA). Described as above. The settings on record: post-emergence, 504 h, postemergence, read-out: Control/Injury; for pest or weed control at 140 g/ha: rate 140 g ae/ha; for pest or weed control at 280 g/ha: rate 280 g ae/ha. The format is in vivo, Amaranthus palmeri (Palmer amaranth). A digest of the protocol: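 Greenhouse-grown Palmer amaranth (25 to 28° C, 16 h light) sprayed postemergence at the 2 to 8 leaf stage with 140 or 280 g ae/ha in acetone/DMSO-based solution containing crop oil concentrate, 187 L/ha by track sprayer. Three to four replicates; plant size measured 21 days after treatment as percent reduction versus untreated control.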

Another data set has as its system Amaranthus rudis (AMATA). Described as above. The class given is in vivo, Amaranthus rudis (tall water hemp). The settings on record: Amaranthus tuberculatus, post-emergence, 504 h, AMATA, postemergence, read-out: Control/Injury; for pest or weed control at 140 g/ha: rate 140 g ae/ha; for pest or weed control at 280 g/ha: rate 280 g ae/ha. A digest of the protocol:
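Greenhouse-grown tall waterhemp (25-28° C, 16 h light) at the 2-8 leaf stage, treated by track sprayer at 187 L/ha with compound at 140 or 280 g ae/ha in acetone/DMSO-based spray solution with crop oil and surfactant. 3-4 replicates per treatment, randomized complete block; plant size reduction versus untreated control measured 21 days after treatment.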

[5] abbreviates: percent reduction vs untreated control, 21 days after treatment.
[6] abbreviates: R-AMAPA, percent reduction vs untreated control, 21 days after treatment.
[7] abbreviates: rate 140 g ae/ha, percent reduction vs untreated, 21 days after treatment.
Where [8] appears, read: percent reduction vs untreated, 21 days after treatment.

Read-outs that look alike come from different tables or passages of the source.

Take `COc1c(Cl)ccc(Cl)c1C(=O)O/N=C(\N)c1cncnc1` [Compound A-35]: in data set [1], the Volatility is given as 0.022 ng/min. For the same molecule, in data set [2] (setting [5]), the pest or weed control at 140 g/ha came to 96% and the pest or weed control at 280 g/ha is 99%.

With `COc1c(Cl)ccc(Cl)c1C(=O)O/N=C(\N)c1cccs1` [Compound A-36], the Volatility in data set [1] was 0.417 ng/min. In data set [2] (setting [5]), the pest or weed control at 140 g/ha came out at 83% and the pest or weed control at 280 g/ha was determined as 98%.

With `COc1c(Cl)ccc(Cl)c1C(=O)O/N=C(\N)c1ccsc1` [Compound A-37], in data set [1], the Volatility is given as 0.145 ng/min. For the same molecule, in data set [2] (setting [5]), the pest or weed control at 140 g/ha turned out to be 87% and the pest or weed control at 280 g/ha was 96%.

Consider `COc1c(Cl)ccc(Cl)c1C(=O)O/N=C(\N)c1ccco1` [Compound A-38], for which the Volatility in data set [1] is listed as 0.46 ng/min. In data set [2] (setting [5]), the pest or weed control at 140 g/ha was 89% and the pest or weed control at 280 g/ha was 97%.

Turning to `COc1c(Cl)ccc(Cl)c1C(=O)O/N=C(\C)c1ccccc1` [Compound A-46], the values for the pest or weed control at 140 g/ha (in data set [3]; with Kochia scoparia (KCHSC) (rate 140 g ae/ha); in data set [4] (setting [6])) were 85%, 99% and 85%, respectively. Moreover, the pest or weed control at 280 g/ha in data set [3] was 82%; in the data set with Kochia scoparia (KCHSC) it was 100%; in data set [4] (setting [6]), 80%. In addition, in data set [1], the Volatility is given as 0.1 ng/min.

`COc1c(Cl)ccc(Cl)c1C(=O)O/N=C(\N)C(C)C` [Compound A-48]: the pest or weed control at 140 g/ha with Amaranthus rudis (AMATA) was 60%; in data set [3] it was 85%; in the data set on Kochia scoparia (KCHSC) (rate 140 g ae/ha) it was 90%; in data set [4] (setting [6]) it was 90%. Also, the pest or weed control at 280 g/ha is 90% in the data set with Amaranthus rudis (AMATA), 100% in data set [3], 100% with Kochia scoparia (KCHSC) and 99% in data set [4] (setting [6]). The Volatility in data set [1] was 0.38 ng/min.

Take `COc1c(Cl)ccc(Cl)c1C(=O)O/N=C(\N)c1ccccc1` [Compound A-49]: the pest or weed control at 140 g/ha in data set [3] was found to be 98%; in data set [2] (setting [5]) it was 95%; with Kochia scoparia (KCHSC) (rate 140 g ae/ha), 82%; in data set [4] (setting [6]), 95%. The pest or weed control at 280 g/ha turned out to be 99% in data set [3], 98% in data set [2] (setting [5]), 100% with Kochia scoparia (KCHSC) and 100% in data set [4] (setting [6]). In addition, the Volatility in data set [1] was 0.08 ng/min.

Consider `COc1c(Cl)ccc(Cl)c1C(=O)O/N=C(\N)c1cccnc1` [Compound A-50], for which the pest or weed control at 140 g/ha in the data set on Amaranthus rudis (AMATA) was determined as 95%; in data set [3] it was 90%; with Kochia scoparia (KCHSC) (rate 140 g ae/ha), 99%; in data set [4] (setting [6]), 95%. The pest or weed control at 280 g/ha stood at 97% in the data set on Amaranthus rudis (AMATA), 100% in data set [3], 99% with Kochia scoparia (KCHSC) and 99% in data set [4] (setting [6]). In addition, the Volatility in data set [1] is recorded as 0.09 ng/min.

Turning to `COc1c(Cl)ccc(Cl)c1C(=O)OCOC(=O)c1ccccc1` [Compound A-51], the pest or weed control at 140 g/ha was 90% in data set [3], 92% in the data set on Kochia scoparia (KCHSC) (rate 140 g ae/ha) and 95% in data set [4] (setting [6]). In addition, the pest or weed control at 280 g/ha came out at 95% in data set [3], 99% with Kochia scoparia (KCHSC) and 95% in data set [4] (setting [6]). For the same molecule, the Volatility in data set [1] is reported as 0.25 ng/min.

On to `COc1c(Cl)ccc(Cl)c1C(=O)OCOC(=O)c1c(Cl)ccc(Cl)c1OC` [Compound A-53], for which the pest or weed control at 140 g/ha is 60% in data set [3], 85% in the data set with Kochia scoparia (KCHSC) (rate 140 g ae/ha) and 70% in data set [4] (setting [6]). Further, the pest or weed control at 280 g/ha in data set [3] turned out to be 70%; in the data set on Kochia scoparia (KCHSC), 90%; in data set [4] (setting [6]) it was 98%. The Volatility in data set [1] is 0.19 ng/min. In the data set on Kochia scoparia (KCHSC) (rate 140 g ae/ha), the Control/Injury came out at 85.

Take `COc1c(Cl)ccc(Cl)c1C(=O)OCCOCCOC(=O)c1c(Cl)ccc(Cl)c1OC` [Compound A-55]: the pest or weed control at 140 g/ha in data set [3] is 25%. The Volatility in data set [1] is reported as 0.24 ng/min. Also, in the data set with Kochia scoparia (KCHSC), the pest or weed control at 280 g/ha stood at 15%.

As to `COc1c(Cl)ccc(Cl)c1C(=O)O/N=C(\N)CC(C)C` [Compound A-59], the Volatility in data set [1] is recorded as 0.086 ng/min. In data set [2] (setting [5]), the pest or weed control at 140 g/ha worked out at 94% and the pest or weed control at 280 g/ha turned out to be 99%.

Take `COc1c(Cl)ccc(Cl)c1C(=O)NOCc1ccccc1` [Compound A-98]: the pest or weed control at 140 g/ha with Amaranthus rudis (AMATA) turned out to be 18%; in data set [3] it was 20%; in data set [2], 2%; in the data set on Kochia scoparia (KCHSC) (setting [7]) it was 8%; in data set [4] (AMAPA) it was 23%. For the same molecule, the pest or weed control at 280 g/ha is 13% in the data set with Amaranthus rudis (AMATA); 15% in data set [3]; 3% in data set [2]; 0% with Kochia scoparia (KCHSC) (setting [8]); 20% in data set [4] (AMAPA). Moreover, the Volatility in data set [1] was 0.08 ng/min.

In the case of `COc1c(Cl)ccc(Cl)c1C(=O)Oc1cc2ccccc2n1C` [Compound A-117], the pest or weed control at 140 g/ha in the data set on Amaranthus rudis (AMATA) turned out to be 85%; in data set [3], 90%; in data set [2] (setting [8]), 98%; in the data set on Kochia scoparia (KCHSC) (setting [7]), 80%; in data set [4] (AMAPA) it was 83%. The pest or weed control at 280 g/ha came to 85% with Amaranthus rudis (AMATA); 97% in data set [3]; 95% in data set [2] (setting [8]); 98% with Kochia scoparia (KCHSC) (setting [8]); 89% in data set [4] (AMAPA). For the same molecule, the Volatility in data set [1] is reported as 0.04 ng/min.

On to `COc1c(Cl)ccc(Cl)c1C(=O)O/N=C(\N)c1ccccc1` [Compound A-150], for which the Volatility in data set [1] was 0.08 ng/min. Further, the pest or weed control at 140 g/ha in data set [2] worked out at 98%; in data set [2] (setting [8]) it was 95%; with Kochia scoparia (KCHSC) (setting [7]), 88%; in data set [4] (AMAPA), 80%. Moreover, the pest or weed control at 280 g/ha in data set [2] stood at 97%; in data set [2] (setting [8]), 98%; with Kochia scoparia (KCHSC) (setting [8]), 99%; in data set [4] (AMAPA) it was 78%.
